Measurements as given in PubChem BioAssay AID179 (DTP/NCI, 2004).
Where “and” joins values, the source holds several entries; their conditions need not be identical. Equal values may be shown once. Calls of active or inactive are those of the source.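 The calls were made as follows: active = compounds giving half or more protection of infected cells from virus-caused growth loss, again on retest; inactive = the rest.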

Test system: CEM cells HIV-1 protection, formazan growth assay
Assay: NCI AIDS Antiviral Assay
Conditions: for IC50: measured here: growth of uninfected CEM cells
How it was run: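 Protection of CEM cells against HIV-1 measured as cell growth via soluble formazan read-out, with five concentrations tested on both infected and uninfected cells; failure to protect may reflect toxicity.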

Structure (SMILES)	EC50 [µM]	IC50	outcome
S=C1CC(c2ccc(Sc3ccccc3)cc2)=Nc2ccccc2N1	> 200	75.9 µM	–
Clc1ccc(CCN2CCOCC2)c(Cl)c1	> 63.1	> 63.1 µM	–
CC1(C)CC2(CC(C)(C)c3cc(O)c(O)cc32)c2cc(O)c(O)cc21	> 275	14.1 µM	–
N#C/C(=C\c1cc(F)cc(F)c1)c1ccccn1	> 200	26.3 µM	–
COC(=O)C(Cc1c[nH]c2ccccc12)NP(=O)(O)OCC1OC(n2cc(I)c(=O)[nH]c2=O)CC1O (centres undefined)	> 200	> 200 µM	–
CN(CC1NCCCC1O)C12CC3CC(CC(C3)C1)C2 (centres undefined)	> 891	> 891 µM	–
COC1Sc2ccccc2C(=O)N2CCCC12 (centres undefined)	> 200	> 200 µM	–
CN1C(CC(O)(c2ccccc2)c2ccccc2)CCCC1CC(O)(c1ccccc1)c1ccccc1 (centres undefined)	> 200	57.5 µM	–
C=CCN1c2ccccc2Sc2cnccc21	> 191	33.1 µM	–
O=C(Nc1ccc(Cl)cc1)Nc1ccc(Cl)c(C(F)(F)F)c1	> 200	2.69 µM	–
CCCCCCC(CCl)c1sc(-c2csc(CCNC(=O)OC(C)(C)C)n2)nc1C(=O)OC (centres undefined)	> 200	> 200 µM	–
COC1C2CC3C4(CCC5C6(C)CCCC53C(C14)N(C)C6)CC21CCC23C4C=C5C6=C(CCC5(CC42)C3O1)C1(C)CC(C6)CN(C)C1 (centres undefined)	0.38	18.6 µM	–
COC(=O)c1cc(C(c2cc(C(=O)OC)c(O)cc2C)C(Cl)(Cl)Cl)c(C)cc1O	> 200	5.75 µM	–
CC(C)(C)OC(=O)N/N=C(/N)Cc1ccc(Cl)cc1	> 200	162 µM	–
OCn1nc(Cl)c2cc(Cl)ccc21	> 200	56.2 µM	–
NNC(=O)CC(=O)Nc1ccc(C(=O)O)cc1	> 200	> 200 µM	–
CS(=O)(=O)OC1C(COC(=O)c2ccccc2)OC2C1Oc1nc(=O)ccn12 (centres undefined)	> 200	> 200 µM	–
COc1cccc(NC(=O)C(C#N)=C(SC)SC)c1	> 200	7.94 µM	–
NC(N)=N/N=C/c1c(-c2ccc(Cl)c(Cl)c2Cl)nc2sccn12	0.191	1.07 µM	–
CCCc1onc(CCC(=O)N(Cc2ccccc2)Cc2ccccc2)c1CC	–	–	inactive
COC(=O)C12N=NN(c3ccccc3)C1(C(=O)OC)C1CCC2C1 (centres undefined)	> 200	> 200 µM	–
CCCCC1=C(C(=O)N2CCOCC2)C2(OCCO2)C1=O	> 200	53.7 µM	–
O=C1Nc2cc(Cl)ccc2C(=O)N2CCC[C@@H]12	> 200	> 200 µM	–

Structure (SMILES)	EC50 [µM]	IC50	outcome
CCOC(=O)C1C(=O)CN2CCc3c([nH]c4ccccc34)C12 (centres undefined)	> 29.5	> 29.5 µM	–
C=CCOP1(OCC=C)=NP(OCC=C)(OCC=C)=NP(OCC=C)(OCC=C)=N1	> 200	8.51 µM	–
OCC1C(O)[C@@H]2OC3(CCCC3)O[C@@H]2CN1OC/C=C/c1ccccc1 (some centres undefined)	> 200	145 µM	–
COc1ccccc1N1C(=O)/C(=C\c2cc(OC)c(OC)c(OC)c2)SC1c1ccccc1 (centres undefined)	> 200	39.8 µM	–
OCCN(CCO)c1nc(N2CCCCC2)c2nc(N(CCO)CCO)nc(N3CCCCC3)c2n1	–	–	inactive
O=C(O)c1ccc(NNc2cc(=O)[nH]c(=O)[nH]2)cc1	> 200	107 µM	–
C=C1C2CCC3(CCC4C5(C)CCCC4(CN(CC)C5)C3C2)C1O (centres undefined)	–	–	inactive
COc1ccc(C2CC(C)=Nc3c([nH]c(=S)[nH]c3=O)N2)cc1 (centres undefined)	> 16.6	> 16.6 µM	–
COc1ccc(C2ON(c3cccc(C)n3)CC=C2C)cc1 (centres undefined)	> 45.7	> 45.7 µM	–
Nc1ccc(O)c(C(=O)[O][Sn]([c]2ccccc2)([c]2ccccc2)[c]2ccccc2)c1	> 2	0.129 µM	–
CC1(CC2=C(C(=O)NCCO[Si](C)(C)C(C)(C)C)C3(OCCO3)C2=O)OCCO1	> 200	> 200 µM	–
O=C(O)c1cc(=O)c2cc(C(=O)c3cccs3)c(Cl)c(Cl)c2o1	> 9.55	> 9.55 µM	–
Cc1cc([N+](=O)[O-])ccc1Sc1c2ccccc2nc2ccccc12	> 20.9	> 20.9 µM	–
O=C1/C(=C/c2ccc(O)c(O)c2)CC/C1=C\c1ccc(O)c(O)c1	> 200	10.7 µM	–
Cc1ccc2[nH]c3c(c2c1)C1CCC(C(C)(C)C)CC1C1C(=O)N(c2ccc4c(c2)OCO4)C(=O)C31 (centres undefined)	> 200	11.5 µM	–
Cc1ccccc1/C=C/c1csnn1	> 129	> 129 µM	–
COC[C@H]1OC(=O)c2coc3c2[C@@]1(C)C1=C(C3=O)[C@@H]2CCC(=O)[C@@]2(C)C[C@H]1OC(C)=O	–	–	inactive
CCOC(=O)C1=C(C)NC(C)=C(C(=O)OCC)C1c1cccc([N+](=O)[O-])c1	–	–	inactive
CCc1ccc2nccc(NCCCN(C)C)c2c1[N+](=O)[O-]	> 200	87.1 µM	–
Cc1cc(C)c(N)c(CO)c1	> 200	> 200 µM and 107 µM	–
CCSc1nc(=S)n(-c2ccccc2)c(C)c1C(C)=O	> 200	> 200 µM	–
CCOC(=O)c1ccc(/C=C/c2cccn2C(=O)OC(C)(C)C)[nH]1	–	–	inactive
